Assay results from patent US11242537B2, “Method for improving sensitivity of plant to gibberellin inhibitor and use thereof” (CHINA AGRICULTURAL UNIVERSITY, priority 2017, dated 2022).

Assays:
[1] = test system: HRP::ga1-1; test: Effect of DPC on plant height of transgenic Arabidopsis thaliana (step 4.1), HRP::ga1-1; format: in vivo; conditions: for Plant height reduction rate / Plant height: HRP::ga1-1; for Plant height reduction rate: relative to 0 mg/L DPC-treated plant; for Plant height: cultured 12 days
Description: (§1) In the following examples, the growth conditions of Arabidopsis thaliana are: culturing in a growth chamber with a photoperiod of 16 h light/8 h dark, a light intensity of 60 μmol/m^2/s, a humidity of 60%-70%, and a temperature of 22° C.
(§2) The experiment was repeated three times, and the specific steps of each repeated experiment were as follows:
(§3) Thirty homozygous line plants of the HRP::ga1-1 of step 2 were randomly selected and randomly divided into three groups, ten plants in each group. On the 33rd day of sowing (the day of sowing was recorded as the first day of sowing), the plants of these three groups were treated as follows, respectively one group was sprayed with water (i.e., 0 mg/L DPC solution) and cultured for 12 days to obtain untreated HRP::ga1-1; one group was sprayed with 30 mg/L DPC solution and cultured for 12 days to obtain 30 mg/L DPC-treated HRP::ga1-1; the last group was sprayed with 500 mg/L aqueous DPC solution and cultured for 12 days to obtain 500 mg/L DPC-treated HRP::ga1-1.
(§4) The plant heights of the above Arabidopsis thaliana before the treatment (FIG. 1) and after different treatments (FIG. 2 and Table 2) were measured.

[2] = test system: HRP::ga1-5; test: Effect of DPC on plant height (step 4.1), HRP::ga1-5; format: in vivo, Arabidopsis thaliana; conditions: for Plant height / Plant height reduction rate: HRP::ga1-5; for Plant height: 12 days; for Plant height reduction rate: relative to 0 mg/L
Description: as §1, §2, §3
(§5) According to the above method, the homozygous line plants of the HRP::ga1-1 were replaced with the homozygous line plants of the HRP::ga1-5, the homozygous line plants of the ZmCPS::ga1-1, the homozygous line plants of the ZmCPS::ga1-5, the homozygous line plants of the PsSuper1300::ga1-1 and the homozygous line plants of the PsSuper1300::ga1-5 respectively, the other steps were unchanged, and untreated HRP::ga1-5, 30 mg/L DPC-treated HRP::ga1-5, 500 mg/L DPC-treated HRP::ga1-5, untreated ZmCPS::ga1-1, 30 mg/L DPC-treated ZmCPS::ga1-1, 500 mg/L DPC-treated ZmCPS::ga1-1, untreated ZmCPS::ga1-5, 30 mg/L DPC-treated ZmCPS::ga1-5, 500 mg/L DPC-treated ZmCPS::ga1-5, untreated PsSuper1300::ga1-1, 30 mg/L DPC-treated PsSuper1300::ga1-1, 500 mg/L DPC-treated PsSuper1300::ga1-1, untreated PsSuper1300::ga1-5, 30 mg/L DPC-treated PsSuper1300::ga1-5 and 500 mg/L DPC-treated PsSuper1300::ga1-5 were obtained, respectively.
as §4

[3] = test system: ga1-1; test: Effect of DPC on plant height (step 4.1), mutant ga1-1; format: in vivo, Arabidopsis thaliana; conditions: for Plant height: 12 days; for Plant height reduction rate: relative to 0 mg/L
Description: as §1, §2
When the ga1-1 was cultured to the 33rd day of sowing (the day of sowing was recorded as the first day of sowing), 30 plants were taken and randomly divided into three groups, ten plants in each group and the plants of these three groups were treated as follows, respectively: one group was sprayed with 0 mg/L DPC solution and cultured for 12 days to obtain untreated ga1-1; one group was sprayed with 30 mg/L aqueous DPC solution and cultured for 12 days to obtain 30 mg/L DPC-treated ga1-1; the last group was sprayed with 500 mg/L DPC solution and cultured for 12 days to obtain 500 mg/L DPC-treated ga1-1.
as §4

[4] = test system: HRP::ga1-5; test: Effects of different concentrations of DPC on plant height (step 4.2), HRP::ga1-5; format: in vivo, Arabidopsis thaliana
Description: as §1, §2
Seventy homozygous line plants of the HRP::ga1-1 of step 2 were randomly selected and randomly divided into seven groups, ten plants in each group. On the 33rd day of sowing (the day of sowing was recorded as the first day of sowing), the plants of these seven groups were treated as follows, respectively: one group was sprayed with water (i.e., 0 mg/L aqueous DPC solution) and cultured for 12 days to obtain untreated HRP::ga1-1; one group was sprayed with 30 mg/L aqueous DPC solution and cultured for 12 days to obtain 30 mg/L DPC-treated HRP::ga1-1; one group was sprayed with 50 mg/L aqueous DPC solution and cultured for 12 days to obtain 50 mg/L DPC-treated HRP::ga1-1; one group was sprayed with 100 mg/L aqueous DPC solution and cultured for 12 days to obtain 100 mg/L DPC-treated HRP::ga1-1; one group was sprayed with 300 mg/L aqueous DPC solution and cultured for 12 days to obtain 300 mg/L DPC-treated HRP::ga1-1; one group was sprayed with 500 mg/L aqueous DPC solution and cultured for 12 days to obtain 500 mg/L DPC-treated HRP::ga1-1; one group was sprayed with 1000 mg/L aqueous DPC solution and cultured for 12 days to obtain 1000 mg/L DPC-treated HRP::ga1-1.
According to the above method, the homozygous line plant of the HRP::ga1-1 was replaced with the pure homozygous line plant of the HRP::ga1-5, and the other steps were unchanged to obtain untreated HRP::ga1-5, 30 mg/L DPC-treated HRP::ga1-5, 50 mg/L DPC-treated HRP::ga1-5, 100 mg/L DPC-treated HRP::ga1-5, 300 mg/L DPC-treated HRP::ga1-5, 500 mg/L DPC-treated HRP::ga1-5 and 1000 mg/L DPC-treated HRP::ga1-5, respectively.
The plant heights of the differently treated Arabidopsis thaliana were measured respectively (FIG. 3), and the average plant heights are shown in Table 3.

[5] = test system: ZmCPS::ga1-1; test: Effect of DPC on plant height (step 4.1), ZmCPS::ga1-1; format: in vivo, Arabidopsis thaliana; conditions: for Plant height: 12 days; for Plant height reduction rate: relative to 0 mg/L
Description: as §1, §2, §3, §5, §4

[6] = test system: maize Zhengdan 958; conditions: 1000 mg/L DPC (Chen yin, 2012); cited from earlier work

Question: Which “Plant height of HRP::ga1-1 as multiple of correspondingly treated ZmCPS::ga1-1” value ([1]; 30 mg/L DPC) does the source give for `C[N+]1(C)CCCCC1.[Cl-]` [DPC, 1,1-dimethylpiperidinium chloride] here?
Answer: 0.68 times

Question: What about the “Plant height of HRP::ga1-1 as multiple of correspondingly treated ga1-1” value ([1]; 30 mg/L DPC) of the same compound?
Answer: 2.71 times

Question: And the “Plant height reduction rate of HRP::ga1-1 as multiple of that of ga1-1” value ([1]; 30 mg/L DPC)?
Answer: 2.49 times

Question: What about the “Plant height of HRP::ga1-1 as multiple of correspondingly treated ZmCPS::ga1-1” value ([1]; 500 mg/L DPC) of the same compound?
Answer: 0.41 times

Question: What about the “Plant height of HRP::ga1-1 as multiple of correspondingly treated ga1-1” value ([1]; 500 mg/L DPC) of the same compound?
Answer: 1.71 times

Question: What about the “Plant height reduction rate of HRP::ga1-1 as multiple of that of ga1-1” value ([1]; 500 mg/L DPC) of the same compound?
Answer: 3.47 times

Question: And the “Plant height reduction rate” value ([1]; 30 mg/L DPC)?
Answer: 33.92%

Question: And the “Plant height reduction rate” value ([1]; 500 mg/L DPC)?
Answer: 60.18%

Question: What about the Plant height ([1]; sprayed with 30 mg/L DPC on 33rd day of sowing) of the same compound?
Answer: 11.2 ± 0.24 cm

Question: What about the Plant height ([1]; sprayed with 500 mg/L DPC on 33rd day of sowing) of the same compound?
Answer: 6.75 ± 0.38 cm

Question: What about the “Plant height of HRP::ga1-5 as multiple of correspondingly treated ZmCPS::ga1-5” value ([2]; 30 mg/L DPC) of the same compound?
Answer: 0.64 times

Question: And the “Plant height of HRP::ga1-5 as multiple of correspondingly treated ga1-5” value ([2]; 30 mg/L DPC)?
Answer: 1.65 times

Question: And the “Plant height reduction rate of HRP::ga1-5 as multiple of that of ga1-5” value ([2]; 30 mg/L DPC)?
Answer: 4.68 times

Question: And the “Plant height of HRP::ga1-5 as multiple of correspondingly treated ZmCPS::ga1-5” value ([2]; 500 mg/L DPC)?
Answer: 0.38 times

Question: And the “Plant height of HRP::ga1-5 as multiple of correspondingly treated ga1-5” value ([2]; 500 mg/L DPC)?
Answer: 1.00 times

Question: And the “Plant height reduction rate of HRP::ga1-5 as multiple of that of ga1-5” value ([2]; 500 mg/L DPC)?
Answer: 6.66 times

Question: And the Plant height ([2]; 30 mg/L DPC spray)?
Answer: 10.80 ± 0.43 cm

Question: And the “Plant height reduction rate” value ([2]; 30 mg/L DPC)?
Answer: 31.99%

Question: And the Plant height ([2]; 500 mg/L DPC spray)?
Answer: 6.41 ± 0.18 cm

Question: And the “Plant height reduction rate” value ([2]; 500 mg/L DPC)?
Answer: 59.63%

Question: And the Plant height ([3]; 30 mg/L DPC spray)?
Answer: 4.13 ± 0.25 cm

Question: And the “Plant height reduction rate” value ([3]; 30 mg/L DPC)?
Answer: 13.60%

Question: And the Plant height ([3]; 500 mg/L DPC spray)?
Answer: 3.95 ± 0.10 cm

Question: What about the “Plant height reduction rate” value ([3]; 500 mg/L DPC) of the same compound?
Answer: 17.36%

Question: And the “Plant height (average)” value ([4]; 30 mg/L DPC spray, 12 days (step 4.2))?
Answer: 11.93 cm

Question: What about the “Plant height (average)” value ([4]; 50 mg/L DPC spray, 12 days) of the same compound?
Answer: 9.843 cm

Question: What about the “Plant height (average)” value ([4]; 100 mg/L DPC spray, 12 days) of the same compound?
Answer: 10.14 cm

Question: And the “Plant height (average)” value ([4]; 300 mg/L DPC spray, 12 days)?
Answer: 9.957 cm

Question: What about the “Plant height (average)” value ([4]; 500 mg/L DPC spray, 12 days (step 4.2)) of the same compound?
Answer: 9.857 cm

Question: And the “Plant height (average)” value ([4]; 1000 mg/L DPC spray, 12 days)?
Answer: 7.357 cm

Question: And the Plant height ([5]; 30 mg/L DPC spray)?
Answer: 16.52 ± 0.31 cm

Question: And the “Plant height reduction rate” value ([5]; 30 mg/L DPC)?
Answer: −0.12%

Question: And the Plant height ([5]; 500 mg/L DPC spray)?
Answer: 16.45 ± 0.21 cm

Question: What about the “Plant height reduction rate” value ([5]; 500 mg/L DPC) of the same compound?
Answer: 0.30%

Question: And the “Effect of DPC on plant height (in words)” value ([5]; 30 and 500 mg/L DPC)?
Answer: no effect

Question: And the “Plant height and stem diameter compared with control” value [6]?
Answer: no significant difference
